Here are results for five molecules from patent publication US20250295799A1, “ANTIBODY-DRUG CONJUGATES TARGETING GLYPICAN-3 AND METHODS OF USE” (Zymeworks BC Inc., priority 2022, published 2025).

The subject of data set [1] is MDA-MB-468 (breast cancer). Put plainly: In vitro cytotoxicity of camptothecin analogues (CellTiter-Glo). It counts as cell-based. To be noted: Homo sapiens, MDA-MB-468, 96 h, read-out: pIC50 MDA-MB-468 (converted). As to the method:
(§1) In vitro potency was assessed on multiple cancer cell lines: SK-BR-3 (breast cancer), SKOV-3 (ovarian cancer), Calu-3 (lung cancer), ZR-75-1 (breast cancer) and MDA-MB-468 (breast cancer). Serial dilutions of camptothecin analogues were prepared in RPMI 1640+10% FBS, and 20 μL of each dilution was added to 384-well plates. Cells cultured in log-phase growth were detached by brief incubation in 0.05% Trypsin and resuspended in respective culturing media at 20,000 cells/mL (with the exception of ZR-75 cells, which were resuspended at 10,000 cells/mL). 50 μL of cell suspension was then added to the plates containing test articles. Cells were incubated with test articles for 4 d at 37° C. (with the exception of ZR-75 cells, which were incubated for 5 d). Growth inhibition was assessed by CellTiter-Glo® (Promega Corporation, Madison, WI) and luminescence was measured on a plate reader. IC50 values were determined by GraphPad Prism (GraphPad Software, San Diego CA).

For the next data set, the system named is SKOV-3 (ovarian cancer). Described as above. The class given is cell-based. To be noted: Homo sapiens, SK-OV-3, 96 h, read-out: pIC50 SKOV-3 (converted). The method, then: as §1
The test system of another data set is SK-BR-3 (breast cancer). The data set is described as above. The class given is cell-based. To be noted: Homo sapiens, SK-BR-3, 96 h, read-out: pIC50 SKBR-3 (converted). The method, then: as §1
In another data set the test system is ZR-75-1 (breast cancer). Described as above. It counts as cell-based. The following applies: Homo sapiens, ZR-75-1, 120 h, read-out: pIC50 ZR-75 (converted). As to the method:
as §1

A further data set relates to Calu-3 (lung cancer). The description is as above. The class given is cell-based. To be noted: Homo sapiens, Calu-3, 96 h, read-out: pIC50 Calu-3 (converted). As to the method:
as §1

Another data set has as its system hepatocellular carcinoma. To be noted: adults with HCC; cited from earlier work.
In data set [2] the test system is JHH-7 cells (high GPC3-expressing). Put plainly: Internalization by flow cytometry (quenched AF488). The class given is cell-based. The following applies: antibody 10 nM. As to the method: (§2) Cells were seeded at 50,000 cells/well in 48-well plates and incubated overnight under standard culturing conditions (37° C./5% CO2) in Gibco™ Dulbecco's Modified Eagle Media (DMEM) (Thermo Fisher Scientific, Waltham, MA; Cat. No. 11995040) with 10% Fetal Bovine Serum (FBS) (Thermo Fisher Scientific, Waltham, MA; Cat. No. 12483020) for Hep G2 cells, and Gibco™ William's E Medium, GlutaMAX™ Supplement (Thermo Fisher Scientific, Waltham, MA; Cat. No. 32551020) with 10% FBS (Thermo Fisher Scientific, Waltham, MA; Cat. No. 12483020) for JHH-7 cells. Coupled antibodies were added to cells the following day at 10 nM or at 100 nM and incubated under standard culturing conditions for 5-24 hours to allow for internalization. Following incubation, cells were dissociated, washed, and surface AF488 fluorescence was quenched using an anti-AF488 antibody (Life Technologies, Carlsbad, CA; Cat. No. A-11094) at 100 nM for 30 minutes at 4° C. Quenched AF488 fluorescence (internalized fluorescence) was detected by flow cytometry on a BD LSRFortessa™ Cell Analyzer (BD Biosciences, Franklin Lake, NJ) with 1,000 minimum events collected per well.
as §2, with “CO2)” for “CO2) in Gibco™ Dulbecco's Modified Eagle Media (DMEM) (Thermo Fisher Scientific, Waltham, MA; Cat. No. 11995040) with 10% Fetal Bovine Serum (FBS) (Thermo Fisher Scientific, Waltham, MA; Cat. No. 12483020) for Hep G2 cells, and”, “12483020).” for “12483020) for JHH-7 cells.”, “5” for “10 nM or at 100”, “24” for “5-24”, “well. […]” for “well.”
For orientation: Flow cytometry measures light scatter and fluorescence of single cells or particles in a stream.

For data set [3], the system named is Hep G2 cells (high GPC3-expressing). Put plainly: Internalization by flow cytometry (quenched AF488). It counts as cell-based. The following applies: antibody 10 nM. The method, then: as §2
A further data set concerns JHH-7 cells (GPC3-high). Put plainly: On-cell binding by flow cytometry. To be noted: 24 h at 4 °C. As to the method: Briefly, cells were seeded at 50,000 cells/well in V-bottom 96-well plates and treated with antibody for 24 hours at 4° C. to prevent internalization. […] Following incubation and washing, fluorescence was detected by flow cytometry on a BD LSRFortessa™ Cell Analyzer (BD Biosciences, Franklin Lake, NJ) with 1,000 minimum events collected per well. AF647/APC-A GeoMean (fluorescence signal geometric mean, proportional to anti-Human AF647 binding) in live cell population was plotted against antibody concentration using GraphPad Prism Version 9 (GraphPad Software, San Diego, CA). The Bmax, Curve Hill Slope (h) and Kd values were derived from the “Specific binding with Hill slope” nonlinear regression curve fit in GraphPad Prism Version 9.
The on-cell binding capabilities of light chain (LC)-modified M3-H18L6 antibody constructs were assessed on JHH-7 (hepatocellular carcinoma; GPC3-high) and JHH-5 (hepatocellular carcinoma; GPC3-mid) by flow cytometry as described below. […] The assay was carried out as described in Example 13.
Briefly, plasma stress was carried out by incubating M3-H18L6 LC-modified antibodies in mouse plasma (BioIVT, Westbury, NY; Cat. No. MSE00PL38NC-0103070) for 14 days in a 37° C./5% CO2 incubator. […] Following incubation and washing, fluorescence was detected by flow cytometry on a BD LSRFortessa™ Cell Analyzer (BD Biosciences, Franklin Lake, NJ) with 1,000 minimum events collected per well. AF647/APC-A GeoMean (fluorescence signal geometric mean, proportional to anti-Human AF647 binding) in live cell population was plotted against antibody concentration using GraphPad Prism Version 9 (GraphPad Software, San Diego, CA). […] Following incubation, cells were dissociated, washed, and surface AF488 fluorescence was quenched using an anti-AF488 antibody (Life Technologies, Carlsbad, CA; Cat. No. A-11094) at 100 nM for 30 minutes at 4° C. Quenched AF488 fluorescence (internalized fluorescence) was detected by flow cytometry on a BD LSRFortessa™ Cell Analyzer (BD Biosciences, Franklin Lake, NJ) with 1,000 minimum events collected per well.

A further data set relates to HepG2 cells (GPC3-high). Put plainly: On-cell binding by flow cytometry. To be noted: 24 h at 4 °C. The method, then: Briefly, cells were seeded at 50,000 cells/well in V-bottom 96-well plates and treated with antibody for 24 hours at 4° C. to prevent internalization. […] Following incubation and washing, fluorescence was detected by flow cytometry on a BD LSRFortessa™ Cell Analyzer (BD Biosciences, Franklin Lake, NJ) with 1,000 minimum events collected per well.

As for `CC[C@@]1(O)C(=O)OCc2c1cc1n(c2=O)Cc2c-1nc1cc(F)c(C)cc1c2CN1CCN(c2ccc(N)cc2)CC1` [Compound 108, (S)-11-((4-(4-aminophenyl)piperazin-1-yl)methyl)-4-ethyl-8-fluoro-4-hydroxy-9-methyl-1,12-dihydro-14H-pyrano[3′,4′:6,7]indolizino[1,2-b]quinoline-3,14(4H)-dione], the IC50 in [1] was 47.9 nM; with SKOV-3 (ovarian cancer), 55 nM; with SK-BR-3 (breast cancer), 29.5 nM; in the data set with ZR-75-1 (breast cancer), 18.6 nM; with Calu-3 (lung cancer), 40.7 nM.
For `CC[C@@]1(O)C(=O)OCc2c1cc1n(c2=O)Cc2c-1nc1cc(F)c(C)cc1c2CNS(C)(=O)=O` [Compound 122, (S)-N-((4-ethyl-8-fluoro-4-hydroxy-9-methyl-3,14-dioxo-3,4,12,14-tetrahydro-1H-pyrano[3′,4′:6,7]indolizino[1,2-b]quinolin-11-yl)methyl)methanesulfonamide], the IC50 was 1.1 nM in [1]; 9.12 nM with SKOV-3 (ovarian cancer); 1.12 nM in the data set on SK-BR-3 (breast cancer); 1.29 nM in the data set with ZR-75-1 (breast cancer); 3.72 nM in the data set on Calu-3 (lung cancer).
In the same order, the values of `CC[C@@]1(O)C(=O)OCc2c1cc1n(c2=O)Cc2c-1nc1cc(F)c(C)cc1c2CN1CCO[C@@H](CO)C1` [Compound 113, (S)-4-ethyl-8-fluoro-4-hydroxy-11-(((R)-2-(hydroxymethyl)morpholino)methyl)-9-methyl-1,12-dihydro-14H-pyrano[3′,4′:6,7]indolizino[1,2-b]quinoline-3,14(4H)-dione] are 3.39 nM, 4.27 nM, 1.95 nM, 2.19 nM and 3.02 nM.
In the case of “codrituzumab: "Codrituzumab, also known as GC33 or RG-7686"; antibody targeting GPC3 tested clinically "as a bivalent IgG"; "reference antibody codrituzumab"”, in the data set with hepatocellular carcinoma, the “efficacy in clinical trials, in words” value was “limited efficacy” and the “safety in clinical trials, in words” value is “good safety profile”.
For orientation: Kd means a measure of binding affinity in units of concentration. A low value points to a tighter complex. As for palivizumab [v22277 (palivizumab)], in data set [2] (5 hours), the “Internalized fluorescence, fold increase over palivizumab, JHH-7, 5 hours” value was found to be 1.0 fold. Also, the “Internalized fluorescence, fold increase over palivizumab, JHH-7, 24 hours” value in data set [2] (24 hours) was found to be 1.0 fold. For the same molecule, in [3] (5 hours), the “Internalized fluorescence, fold increase over palivizumab, Hep G2, 5 hours” value amounted to 1.0 fold. In addition, in [3] (24 hours), the “Internalized fluorescence, fold increase over palivizumab, Hep G2, 24 hours” value was 1.0 fold. The Kd with JHH-7 cells (GPC3-high) and in the data set with HepG2 cells (GPC3-high) was greater than 60 nM in each case.
